Experiment [1] can be described thus: Inhibition of VGLUT (unknown origin). The arrangement: species or system Homo sapiens.
A further experiment is filed under the species Rattus norvegicus. Nature of the experiment: Inhibition of VGLUT in rat brain assessed as [3H]-L-Glu uptake into synaptic vesicles at 250 uM relative to control. It is filed as tissue-based.
A short description of experiment [2]: Inhibition of VGLUT-mediated [3H]-L-Glu uptake into synaptic vesicles in rat brain. The class given is tissue-based.
A short description of experiment [3]: Competitive inhibition of VGLUT-mediated [3H]-L-Glu uptake into synaptic vesicles in rat brain by Lineweaver-Burk plot analysis. The class given is tissue-based.

In the case of `Cc1cc(-c2ccc(/N=N/c3c(S(=O)(=O)O)cc4cc(S(=O)(=O)O)cc(N)c4c3O)c(C)c2)ccc1/N=N/c1c(S(=O)(=O)O)cc2cc(S(=O)(=O)O)cc(N)c2c1O` [TRYPAN BLUE], in experiment [1], the Ki (as a rule, a dissociation constant, usually derived from enzyme kinetics or from competition with a known ligand) was 0.05 µM. Consider `C[C@]12CC[C@@H]3c4ccc(O)cc4CC[C@H]3[C@@H]1CCC2=O`, for which the inhibition (in general, the change of the read-out against control, counted positive when it falls) in the experiment listed under Rattus norvegicus was 98%.

The molecule `N[C@@]1(C(=O)O)CC[C@@H](C(=O)O)C1` returned a Ki in experiment [1] of 700 µM. As for `CC(=O)O[C@H]1CC[C@@]2(C)C(=CC[C@H]3[C@@H]4CC[C@H](C(C)=O)[C@@]4(C)CC[C@@H]32)C1`, in the experiment filed under Rattus norvegicus, the inhibition turned out to be 86%. For the molecule `CC(=O)[C@H]1CC[C@H]2[C@@H]3CC[C@@H]4C[C@@H](OS(=O)(=O)O)CC[C@]4(C)[C@H]3CC[C@]12C`, inhibition in experiment [2] was half-maximal at 42 µM (IC50). For the same molecule, affinity in experiment [3] was put at a Ki of 22 µM. Also, in the experiment filed under Rattus norvegicus, the inhibition was 15%. Regarding `CC(=O)[C@H]1CC[C@H]2[C@@H]3CC=C4C[C@@H](O)CC[C@]4(C)[C@H]3CC[C@]12C`, the inhibition in the experiment listed under Rattus norvegicus came to 100%.

Turning to `O=C(O)c1cc(C(=O)O)c2ccc3cc4ccccc4cc3c2n1`, in experiment [2], the IC50 (commonly the concentration that gives 50% inhibition) was determined as 70 µM. Besides, the inhibition in the experiment listed under Rattus norvegicus is 26%. On to `C[C@]12CC[C@@H]3c4ccc(OC(=O)CCC(=O)O)cc4CC[C@H]3[C@@H]1CCC2=O`, for which, in the experiment listed under Rattus norvegicus, the inhibition amounted to 109%. For `O=C(O)c1cc(C(=O)O)c2c(ccc3cc4ccccc4cc32)n1`, the IC50 in experiment [2] was determined as 71 µM. The inhibition in the experiment filed under Rattus norvegicus came out at 17%.

Regarding `CC(=O)C1CCC2C3CC=C4CC(OS(=O)(=O)O)CCC4(C)C3CCC12C` (centres undefined), in the experiment listed under Rattus norvegicus, the inhibition was 31%.
